Measurements from patent publication US12252492B2, “Substituted fused pyrrolo-diazepinones and uses thereof” (Northwestern University, priority 2018, dated 2025).

Legend:
Format in all cases: cell-based, human
[1] = tested on: HCC-2998; assay: NCI60 one-dose screen, HCC-2998; conditions: HCC-2998 (Colon Cancer); NCI 60 one-dose, 10^-5 M
Method: (§1) Anti-cancer activity screening of all compounds was performed by the NCI Developmental Therapeutics Program (DTP) through their NCI60 screening initiative. Assay details can be found at the website dtp.cancer.gov/discovery_development/nci-60/methodology.htm. Information from this website is reproduced here for convenience.
(§2) As of early 2007 all compounds submitted to the NCI 60 Cell screen are tested initially at a single high dose (10^-5 M) in the full NCI 60 cell panel. Only compounds which satisfy pre-determined threshold inhibition criteria in a minimum number of cell lines will progress to the full 5-dose assay. The threshold inhibition criteria for progression to the 5-dose screen was selected to efficiently capture compounds with anti-proliferative activity based on careful analysis of historical DTP screening data. The threshold criteria may be updated as additional data becomes available.
(§3) The One-dose data will be reported as a mean graph of the percent growth of treated cells and will be similar in appearance to mean graphs from the 5-dose assay. […]
(§4) Following drug addition, the plates are incubated for an additional 48 h at 37° C., 5% CO2, 95% air, and 100% relative humidity. […] Bound stain is subsequently solubilized with 10 mM trizma base, and the absorbance is read on an automated plate reader at a wavelength of 515 nm. […]

[2] = tested on: U251; assay: NCI60 one-dose screen, U251; conditions: U251 (CNS Cancer); NCI 60 one-dose, 10^-5 M
Method: as §1, §2, §3, §4

[3] = tested on: BT-549; assay: NCI60 one-dose screen, BT-549; conditions: BT-549 (Breast Cancer); NCI 60 one-dose, 10^-5 M
Method: as §1, §2, §3, §4

[4] = tested on: A549/ATCC; assay: NCI60 one-dose screen, A549; conditions: A549/ATCC (Non-Small Cell Lung Cancer); NCI 60 one-dose, 10^-5 M
Method: as §1, §2
The One-dose data will be reported as a mean graph of the percent growth of treated cells and will be similar in appearance to mean graphs from the 5-dose assay. The number reported for the One-dose assay is growth relative to the no-drug control, and relative to the time zero number of cells. This allows detection of both growth inhibition (values between 0 and 100) and lethality (values less than 0). This is the same as for the 5-dose assay, described below. For example, a value of 100 means no growth inhibition. A value of 40 would mean 60% growth inhibition. A value of 0 means no net growth over the course of the experiment. A value of −40 would mean 40% lethality. A value of −100 means all cells are dead. Information from the One-dose mean graph is available for COMPARE analysis.
The human tumor cell lines of the cancer screening panel are grown in RPMI 1640 medium containing 5% fetal bovine serum and 2 mM L-glutamine. For a typical screening experiment, cells are inoculated into 96 well microtiter plates in 100 μL at plating densities ranging from 5,000 to 40,000 cells/well depending on the doubling time of individual cell lines. After cell inoculation, the microtiter plates are incubated at 37° C., 5% CO2, 95% air and 100% relative humidity for 24 h prior to addition of experimental drugs.
After 24 h, two plates of each cell line are fixed in situ with TCA, to represent a measurement of the cell population for each cell line at the time of drug addition (Tz). Experimental drugs are solubilized in dimethyl sulfoxide at 400-fold the desired final maximum test concentration and stored frozen prior to use. At the time of drug addition, an aliquot of frozen concentrate is thawed and diluted to twice the desired final maximum test concentration with complete medium containing 50 μg/ml gentamicin. Additional four, 10-fold or ½ log serial dilutions are made to provide a total of five drug concentrations plus control. Aliquots of 100 μl of these different drug dilutions are added to the appropriate microtiter wells already containing 100 μl of medium, resulting in the required final drug concentrations.
Following drug addition, the plates are incubated for an additional 48 h at 37° C., 5% CO2, 95% air, and 100% relative humidity. For adherent cells, the assay is terminated by the addition of cold TCA. Cells are fixed in situ by the gentle addition of 50 μl of cold 50% (w/v) TCA (final concentration, 10% TCA) and incubated for 60 minutes at 4° C. The supernatant is discarded, and the plates are washed five times with tap water and air dried. Sulforhodamine B (SRB) solution (100 μl) at 0.4% (w/v) in 1% acetic acid is added to each well, and plates are incubated for 10 minutes at room temperature. After staining, unbound dye is removed by washing five times with 1% acetic acid and the plates are air dried. Bound stain is subsequently solubilized with 10 mM trizma base, and the absorbance is read on an automated plate reader at a wavelength of 515 nm. […]

[5] = tested on: 786-0; assay: NCI60 one-dose screen, 786-0; conditions: 786-0 (Renal Cancer); NCI 60 one-dose, 10^-5 M
Method: as §1, §2, §3, §4

[6] = tested on: RXF 393; assay: NCI60 one-dose screen, RXF 393; conditions: RXF 393 (Renal Cancer); NCI 60 one-dose, 10^-5 M
Method: as §1, §2, §3, §4

[7] = tested on: HCT-116; assay: NCI60 one-dose screen, HCT-116; conditions: HCT-116 (Colon Cancer); NCI 60 one-dose, 10^-5 M
Method: as §1, §2, §3, §4

[8] = tested on: PC-3; assay: NCI60 one-dose screen, PC-3; conditions: PC-3 (Prostate Cancer); NCI 60 one-dose, 10^-5 M
Method: as §1, §2, §3, §4

[9] = tested on: MALME-3M; assay: NCI60 one-dose screen, MALME-3M; conditions: MALME-3M (Melanoma); NCI 60 one-dose, 10^-5 M
Method: as §1, §2, §3, §4

[10] = tested on: UACC-257; assay: NCI60 one-dose screen, UACC-257; conditions: UACC-257 (Melanoma); NCI 60 one-dose, 10^-5 M
Method: as §1, §2, §3, §4

[11] = tested on: ACHN; assay: NCI60 one-dose screen, ACHN; conditions: ACHN (Renal Cancer); NCI 60 one-dose, 10^-5 M
Method: as §1, §2, §3, §4

[12] = tested on: MDA-MB-468; assay: NCI60 one-dose screen, MDA-MB-468; conditions: MDA-MB-468 (Breast Cancer); NCI 60 one-dose, 10^-5 M
Method: as §1, §2, §3, §4

[13] = tested on: CCRF-CEM; assay: NCI60 one-dose screen, CCRF-CEM; conditions: CCRF-CEM (Leukemia); NCI 60 one-dose, 10^-5 M
Method: as §1, §2, §3, §4

[14] = tested on: HL-60(TB); assay: NCI60 one-dose screen, HL-60(TB); conditions: HL-60(TB) (Leukemia); NCI 60 one-dose, 10^-5 M
Method: as §1, §2, §3, §4

[15] = tested on: HT29; assay: NCI60 one-dose screen, HT29; conditions: HT29 (Colon Cancer); NCI 60 one-dose, 10^-5 M
Method: as §1, §2, §3, §4

[16] = tested on: LOX IMVI; assay: NCI60 one-dose screen, LOX IMVI; conditions: LOX IMVI (Melanoma); NCI 60 one-dose, 10^-5 M
Method: as §1, §2, §3, §4

[17] = tested on: NCI60 Cell Line Panel; assay: NCI60 one-dose screen, whole panel statistics; conditions: mean over the NCI60 cell line panel, 10^-5 M
Method: as §1, §2, §3, §4

[18] = tested on: HCT-15; assay: NCI60 one-dose screen, HCT-15; conditions: HCT-15 (Colon Cancer); NCI 60 one-dose, 10^-5 M
Method: as §1, §2, §3, §4

| Structure (SMILES) | Growth Percent [1] [%] | Growth Percent [2] [%] | Growth Percent [3] [%] | Growth Percent [4] [%] | Growth Percent [5] [%] | Growth Percent [6] [%] | Growth Percent [7] [%] | Growth Percent [8] [%] | Growth Percent [9] [%] | Growth Percent [10] [%] | Growth Percent [11] [%] | Growth Percent [12] [%] | Growth Percent [13] [%] | Growth Percent [14] [%] | Growth Percent [15] [%] | Growth Percent [16] [%] | Growth Percent, Mean [17] [%] | Growth Percent [18] [%] |
| --- | --- | --- | --- | --- | --- | --- | --- | --- | --- | --- | --- | --- | --- | --- | --- | --- | --- | --- |
| CC(=O)N1c2ccccc2NC2=C(C(=O)N(C)C2(C)C)C1c1ccccc1 (stereo not drawn) [NUCC-60872] | 60.81 | 18.07 | 69.46 | 80.32 | 80.09 | 27.79 | 24.91 | 36.41 | 44.26 | 36.37 | 95.96 | 19.19 | 20.66 | 7.50 | 25.22 | 37.52 | 41.43 | 93.83 |
| CC(=O)N1c2ccccc2NC2=C(C(=O)N(Cc3ccccc3)C2(C)C)C1c1ccco1 (stereo not drawn) [NUCC-608455] | 3.73 | 24.64 | 47.62 | 22.02 | 21.45 | −11.72 | 7.52 | 29.67 | 69.89 | 77.61 | 33.51 | −1.86 | 24.15 | 9.63 | 9.99 | 25.57 | 23.48 | 15.65 |
